Measured values as given in US8492344B2, “PDK inhibitor compounds and methods of use thereof” (University of Florida Research Foundation, priority 2008, dated 2013).

How the values were obtained:
[1] = Solubility in DMSO; assay type: physicochemical
[2] = tested on: PDH activity; experiment: PDH activity in human fibroblast cultures (14CO2 from [1-14C]-pyruvate); assay type: cell-based; conditions: for PDH activity stimulation at 0.25 mM: tested at 0.25 mM, data not shown; for Potency relative to DCA in improving PDH activity at the lowest concentration tested: dose-response 0.01 to 5 mM, lowest concentration printed as 0.01 μM; for Potency relative to DCA in increasing PDH activity / Change of PDH activity at 5 mM: dose-response; for Potency relative to DCA in increasing PDH activity: 0.01 mM; for PDH activity vs DMSO control (result in words): initial studies, maximum feasible dose (0.25 to 2 mM), 24 h, 3 cell lines, p≦0.05
Procedure: PDH complex activity was measured by the rate of ^14C formation from [1-^14C]-labeled pyruvate, as described in Mitochondrion 6:126-135 (2006) or Mitochondrion. 7: 253-259 (2007). Fibroblasts harvested by trypsinization from a confluent T-75 flask were washed in phosphate-buffered saline (PBS) and resuspended in PBS containing the serine protease inhibitors leupeptin and phenylmethylsulfonyl fluoride (PMSF). Cells were incubated for 15 min at 37° C. with DCA. Reactions were halted by addition of a stop solution (25 mM NaF, 25 mM EDTA, 4 mM dithiothreitol, 40% ethanol), and cells were lysed by repeated freezing and thawing. Sixteen aliquots of each fibroblast sample were assayed in test tubes for enzyme activity. Four samples that contained only lysate and water and four samples that also contained thiamine pyrophosphate and coenzyme A were assayed at reaction times of 5 and 10 min. A ^14C-labeled pyruvate aliquot of known specific activity was added to the cell lysates and the test tubes were immediately closed with a rubber stopper. The stopper was outfitted with a center well (Kimble-Kontes, Vineland, N.J.) that contained 1 cm^2 chromatography paper soaked with 100 μl hyamine hydroxide. Reactions were halted by adding stopping buffer. The ^14CO2 evolved due to PDH-mediated catalysis and trapped in the paper was determined by liquid scintillation. PDH specific activity was expressed as nmol ^14CO2 produced/min/mg protein. Excess cell lysate was used to determine total protein.
The compounds (predicted to interact with PDK2) were tested in human fibroblast cultures from three healthy subjects for their effect on PDH activity. DCA and dimethyl sulfoxide (DMSO) were used as positive and vehicle controls, respectively. Drugs were dissolved in DMSO and were used at maximum feasible dose in initial studies (0.25 to 2 mM). For dose-response experiments, concentrations used were: 0.01, 0.05, 0.1, 0.5, 1, and 5 mM. DCA was used as positive control. Cells were exposed to media with DCA, NCI compounds or DMSO vehicle for the final 24 h of culture.
Primary cultures of fibroblasts were grown at 37° C. in a humidified 5% CO2/95% air atmosphere in DMEM supplemented with 20% (v/v) FBS, 100 U/mL penicillin, 100 μg/mL streptomycin, and 6 mM L-glutamine.
Cell lysates treated with DCA or NCI compounds were incubated in a reaction buffer that contained [1-^14C]-pyruvate. PDH activity was measured by quantitation of liberated ^14CO2. (Han et al., 2007. Down-regulation of rat pyruvate dehydrogensae E1a gene by self-complementary adeno-associated virus-mediated small interfering RNA delivery. Mitochondrion. 7: 253-259). Each sample was run in triplicate, with appropriate blanks.

Solubility in DMSO [1] | Structure (SMILES) | PDH activity stimulation at 0.25 mM [2] | Potency relative to DCA in improving PDH activity at the lowest concentration tested [2] | Potency relative to DCA in increasing PDH activity [2] | Change of PDH activity at 5 mM [2] | PDH activity vs DMSO control (result in words) [2]
poorly soluble in DMSO | O=C(O)CS(=O)(=O)O [Compound 5, 2-sulfoacetic acid] | none of these compounds stimulated PDH activity | – | – | – | –
poorly soluble in DMSO | O=C(O)Cc1nnn[nH]1 [Compound 6, 2-(2H-tetrazol-5-yl)acetic acid] | none of these compounds stimulated PDH activity | – | – | – | –
poorly soluble in DMSO | O=C(O)C(=O)C(=O)O [Compound 7, 2-oxopropanedioic acid] | none of these compounds stimulated PDH activity | – | – | – | –
– | CC(=CC(=O)O)C(=O)O [Compound 10, 2-methylbut-2-enedioic acid] | – | may be more potent than DCA | more potent than DCA | significant decrease in PDH activity | significantly increased PDH activity
– | CC(O)C(O)C(=O)O (stereo not shown) [Compound 12, 2,3-dihydroxybutanoic acid] | – | – | – | – | significantly increased PDH activity
– | O=C(O)Cc1cnc[nH]1 [Compound 14, 2-(3H-imidazol-4-yl)acetic acid] | – | may be more potent than DCA | more potent than DCA | increased PDH activity | significantly increased PDH activity
– | C/C(Cl)=C\C(=O)O [Compound 18, (E)-3-chlorobut-2-enoic acid] | – | – | – | significant decrease in PDH activity | significantly increased PDH activity
– | C/C=C\C(=O)O [Compound 24, (Z)-but-2-enoic acid] | – | – | – | – | significantly increased PDH activity
– | O=CNCC(=O)O [Compound 25, 2-formamidoacetic acid] | – | – | – | – | significantly increased PDH activity
